Results from patent US7820795B2, “Lactobacillus fermentum N-desoxyribosyl transferases and the use thereof for enzymatic synthesis of 2′, 3′—didesoxynucleosides and 2′,3′- didehydro-2′,3′- didesoxynucleosides” (Institut Pasteur, priority 2004, dated 2010).

Key:
[1] = target: T1, Lactobacillus fermentum N-deoxyribosyl transferase (NTD, LF), native/wild type, SEQ ID No. 2 (Limosilactobacillus fermentum, UniProt Q6YNI5); assay: Enzymatic activity tests (dT+C, ddT+C and d4T+C reactions), native enzyme LF; assay type: biochemical; conditions: deoxyribosyl donor + C (cytosine)
T1 construct: crude extract or purified
T1 sequence (Q6YNI5 1-168): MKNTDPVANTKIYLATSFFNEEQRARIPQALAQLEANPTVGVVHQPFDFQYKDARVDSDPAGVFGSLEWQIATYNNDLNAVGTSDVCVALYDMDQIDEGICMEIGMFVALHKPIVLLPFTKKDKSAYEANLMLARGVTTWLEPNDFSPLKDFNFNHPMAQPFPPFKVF
Protocol: 50 μl of enzymatic extract is added to 200 μl of 100 mM citrate buffer, pH 6.44, in the presence of 3 mM ddU or dU final and of 1 mM C final for the strain PAK9, the whole is incubated at 37° C. The progress of the reaction is monitored by TLC (silica; eluent: MeOH—CH2Cl2 (20/80)). […] The disappearance of the substrates and the formation of the products were also quantified by HPLC analysis. The different products are separated by analytical HPLC with a reversed-phase column (100-5C18) using a flow rate of 1 ml/min and a linear gradient of 5-25% CH3CN in a 10 mM triethyl ammonium acetate buffer at pH 7.5 for 20 minutes.
were used as primer in an amplification reaction under standard conditions using the ntd gene of L. fermentum cloned in pSU19 (pLF6) as DNA matrix. The amplification product was digested by the restriction enzymes Nde1 and BamH1 for 2 hours at 37° C., purified on agarose gel and inserted into the plasmid pET24a digested by the same enzymes then the ligation mixture is used to transform the strain β 2033. The plasmid DNA from the colonies was prepared and digested by the enzymes Nde1 and BamH1. […]
(§1) The cells are then centrifuged for 15′ at 4000 rpm at 4° C., washed in 50 ml of phosphate buffer then the pellet obtained after centrifugation is preserved overnight at −20° C. […] The fractions are then analyzed by SDS-PAGE gel and the enzymatic activity determined. […] The protein concentration is determined by measuring the OD at 280 nm. […]
The enzymatic activities of the native and mutant N-deoxyribosyl transferases of L. leichmannii (LL and LL G9S) and of L. fermentum (LF and LFA15T) in the exchange reactions dT+C ? dC+T, ddT+C ? ddC+T and d4T+C ? d4C+T were evaluated starting from crude extracts or purified proteins.
These different values were measured according to the protocol described in the literature [P A Kaminski (2002) “Functional cloning, heterologous expression and purification of two different N-deoxyribosyl transferases from Lactobacillus helveticus” J. Biol. Chem; vol. […]

[2] = target: T2, Lactobacillus fermentum N-deoxyribosyl transferase (NTD) variant LFA15T, mutation A15T, SEQ ID No. 4 (Limosilactobacillus fermentum, UniProt Q6YNI5, A15T); assay: Enzymatic activity tests (dT+C, ddT+C and d4T+C reactions), mutated enzyme LFA15T; assay type: biochemical; conditions: mutant LFA15T; deoxyribosyl donor + C (cytosine)
T2 construct: crude extract or purified
T2 sequence (Q6YNI5 1-168 A15T): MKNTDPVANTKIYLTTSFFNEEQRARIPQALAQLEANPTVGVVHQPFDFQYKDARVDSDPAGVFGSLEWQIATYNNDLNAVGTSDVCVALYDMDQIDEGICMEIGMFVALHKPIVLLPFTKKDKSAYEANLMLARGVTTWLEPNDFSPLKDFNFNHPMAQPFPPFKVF
Protocol: The sequencing of the plasmids present in the selected transformants of PAK 9 made it possible to identify a mutation in the sequence (ntd) having the effect of substituting a residue T for the residue A in position 15 in the corresponding protein sequence (SEQ ID No. 2) (mutation called A15T).
50 μl of enzymatic extract is added to 200 μl of 100 mM citrate buffer, pH 6.44, in the presence of 3 mM ddU or dU final and of 1 mM C final for the strain PAK9, the whole is incubated at 37° C. The progress of the reaction is monitored by TLC (silica; eluent: MeOH—CH2Cl2 (20/80)). […] The disappearance of the substrates and the formation of the products were also quantified by HPLC analysis. […]
as §1
The enzymatic activities of the native and mutant N-deoxyribosyl transferases of L. leichmannii (LL and LL G9S) and of L. fermentum (LF and LFA15T) in the exchange reactions dT+C ? dC+T, ddT+C ? ddC+T and d4T+C ? d4C+T were evaluated starting from crude extracts or purified proteins. […]

[3] = tested on: HIV (human immunodeficiency virus); conditions: cited from earlier work

## Cc1cn([C@H]2C[C@H](O)[C@@H](CO)O2)c(=O)[nH]c1=O [dT]
[1]
  Kcat: 0.665 µmol/s/µg
[2]
  Kcat: 0.242 µmol/s/µg

## OC[C@@H]1CC[C@H](n2cnc3c(O)ncnc32)O1 [ddl, 2′,3′-dideoxyinosine]
[3]
  inhibition of replication of HIV: effectively inhibit the replication of HIV

## Nc1ncnc2c1ncn2[C@H]1CC[C@@H](CO)O1 [ddA, 2′,3′-dideoxyadenosine]
[3]
  inhibition of replication of HIV: effectively inhibit the replication of HIV
